Assays:
in vivo = details: both sexes, mouse, in vivo, ip; C57BI/6 mice, acute toxicity
Protocol: (§1) The acute toxicity of the compounds was assessed from lethality by testing different concentrations, starting at 100mg/kg. […] For intraperitoneal (i.p.) treatment, stock solutions of the tested compounds were prepared immediately before use. They were suspended in corn oil in the desired concentration following initial dissolution in 10% dimethylsulfoxide (DMSO). C57BI/6 male and female were used for toxicity studies. Mice were kept under conditions of constant temperature and humidity in sterile cages with water and food.

[1] = test system: all 9 human cancer cell lines; experiment: MTT cytostatic-cytotoxic activity, all 9 human cancer cell lines; assay type: cell-based; details: for IC50: Homo sapiens, read-out: (cytotoxic); for GI50: in all 9 human cancer cell lines, read-out: IG50 (cytostatic)
[2] = test system: UWB1.289 + BRCA1 human ovarian cancer cell line; experiment: MTT cytostatic-cytotoxic activity, UWB1.289+BRCA1; assay type: cell-based; details: UWB1.289+BRCA1, 48 h treatment; for IC50: kills 50% of the cells
Protocol: Human ovarian adenocarcinoma cells, derived from UBWB1,289, in which the presence of the BRCA1 gene has been restored. […] They are not susceptible to ionizing radiation and radioimmune chemical agents (e.g., alkylating agents). Also, UWB1.289 cells have mutated the p53 tumor suppressor gene, and are positive for the expression of cytokeratin 7 (CK-7), calretinin and Wilms' tumor protein (WT).
(§2) All cancer cell lines are stored in a liquid nitrogen tank in 2.5 ml cryovials (Corning-Costar, Cambridge, Mass.). DMSO (dimethylsulfoxide) act as a cryoprotectant and is added to prevent the formation of ice crystals which may lyse the cells. The Cells were grown as monolayer cultures in T-75 flasks (Corning-Costar, Cambridge, Mass.) and maintained at 37° C. in 5% CO2 incubator & 100% relative humidity. The cultures medium used are McCoy's 5a Medium, supplemented with 10% fetal bovine serum (FBS, Gibco) and 1% antibiotics (100 IU/ml penicillin/100 µg/ml streptomycin), sterilized by filtration (Corning-Costar filter, diameter 0.2 μm, RPMI-1640 and 50% RPMI-1640 (Catalog No 30-2001) plus 50% Mammary Epithelial Growth Medium (MEGM), supplemented with 10% fetal bovine serum (FBS, Gibco) and 1% antibiotics (100 IU/ml penicillin/100 μg/ml streptomycin). The passage is performed every 3-4 to days as follows: Cells are washed with sterile PBS (Phosphate buffered saline): 8 g/l NaCl, 0,2 g/l KCl, 1,15 g/l Na2HPO4καl 0,2 g/l KH2PO4. pH:7,4), add 2-3 ml 0.05% trypsin (Gibco 1:250) and 0.02% EDTA to cover the monolayer and incubate the flask at 3TC for 5-10 minutes. Trypsin-EDTA, is used mainly to detach the cells from the flask and prepare a single cell suspension. Finally, the number of cells can be determined by direct counting using a Neubauer chamber and cell viability is determined by staining the cells with trypan blue.
(§3) In the experimental study the in vitro effect of the compound type (I) was evaluated against ovarian cancer cell lines UWB1.289, UWB1.289+BRCA1 Kai SKOV-3.The cells were plated in 96-well plate (MTP) at a density of 1×10^4cells/m1 per well and maintained for 72 h at 3TC in a 5% CO2 incubator and grown as monolayers. The selection of the initial number of cells was made according to the rate of proliferation of the cell line, in order the cells throughout the experiment are in an exponential (log) growth phase. After 24 hours, cells were treated with 1-100 μmol/l of the tested compounds for 48 h. Experiments were carried out using triplicate wells. The viability of cultured cells was estimated by an (3-(4,5-imethylthiazol-2-yl)-2,5-diphenyltetrazolium bromide (MTT) metabolic assay as described previously (Finlay G J, Wilson W R and Baguley B C: Comparison of in vitro activity of cytotoxic drugs towards human carcinoma and leukaemia cell lines. Eur J Cancer Clin Oncol 22: 655-662, 1986; Alley M C, Scudiero D A, Monks A, Hursey M L, Czerwinski M J, Fine D L, et al. Feasibility of drug screening with panels of human tumor cell lines using a microculture tetrazolium assay. Cancer Res 1988; 48:589-601). MTT (Sigma, St Louis, Mo., USA) was dissolved in PBS in a concentration of 5 mg/ml, filter sterilized, and stored at 4° C. MTT (50 μl of stock solution) was added to each culture and incubated for 3 h at 3TC to allow metabolization. Formazan crystals were solubilized by DMSO (100 μl). Absorbance of the converted dye was measured at a wavelength of 540nm on ELISA reader (BioTek, Winooski, Vt., USA).
(§4) GI50: The mean concentration that causes 50% inhibition of cell growth (Growth Inhibition 50%). The calculation of the value is based on the formula: (Tt72x)−(Ct24)/(Ct72)-(Ct24)×100=50
(§5) TGI: The mean concentration that causes 100% inhibition of cell growth (Total Growth Inhibition). The value is calculated according to the formula: (Tt72x)−(Ct24)/(Ct72)−(Ct24)×100=0
(§6) IC50: The mean concentration that kills 50% of the cells (Inhibition Concentration 50%). The value is calculated according to the formula: (Tt72x)−(Ct24)/(Ct24)×100=[…]

[3] = test system: OVCAR-3 human ovarian cancer cell line; experiment: MTT cytostatic-cytotoxic activity, OVCAR-3; assay type: cell-based; details: OVCAR-3, 48 h treatment; for IC50: kills 50% of the cells
Protocol: (§7) SKOV-3 (SKOV-3) (ATCC HTB 77) and OVCAR-3 (ATCC® HTB-161™)
(§8) Human ovarian adenocarcinoma cells, which are grown easily in monolayer culture with epithelial-like morphology. SKOV-3 are resistant to tumor necrosis factor (TNF) and to other cytotoxic drugs such as cisplatin, and adriamycin, while OVCAR-3 are resistant to adriamycin, cisplatin and melphalan. These cell lines express androgens, estrogens and progesterone receptors. When SKOV-3 or OVCAR-3 cells are subcutaneously implanted in nude mice, SCID mice, a moderately differentiated tumor develops, and the resulting model resembles primary ovarian adenocarcinoma in humans.
as §2, §3, §4
(§9) TGI: The mean concentration that causes 100% inhibition of cell growth (Total Growth Inhibition). […]

[4] = test system: SKOV-3 human ovarian cancer cell line; experiment: MTT cytostatic-cytotoxic activity, SKOV-3; assay type: cell-based; details: SKOV-3, 48 h treatment; for IC50: kills 50% of the cells
Protocol: as §7, §8, §2, §3, §4, §9

[5] = test system: UWB1.289 human ovarian cancer cell line (mutant BRCA1); experiment: MTT cytostatic-cytotoxic activity, UWB1.289; assay type: cell-based; details: UWB1.289, 48 h treatment; for IC50: kills 50% of the cells
Protocol: Also, UWB1.289 cells have mutated the p53 tumor suppressor gene and positive Wilms' tumor protein (WT) expression, have no functional BRCA1 gene and are positive for the expression of cytokeratin 7 (CK-7), calretinin and Wilms' tumor protein (WT). Finally they are sensitive to ionizing radiation.
as §2, §3, §4, §5, §6

[6] = test system: MCF-7 human breast cancer cell line; experiment: MTT cytostatic-cytotoxic activity, MCF-7; assay type: cell-based; details: MCF-7, 48 h treatment; for IC50: kills 50% of the cells
[7] = test system: T-47D human breast cancer cell line; experiment: MTT cytostatic-cytotoxic activity, T-47D; assay type: cell-based; details: 48 h treatment; for IC50: kills 50% of the cells
[8] = test system: PC-3 human hormone-resistant prostate cancer cell line; experiment: MTT cytostatic-cytotoxic activity, PC-3; assay type: cell-based; details: PC-3, 48 h treatment; for IC50: kills 50% of the cells
[9] = test system: MOLT-4 human acute T-leukemia cell line; experiment: MTT cytostatic-cytotoxic activity, MOLT-4; assay type: cell-based; details: MOLT-4, 48 h treatment; for IC50: kills 50% of the cells
[10] = test system: A-549 human lung carcinoma cell line; experiment: MTT cytostatic-cytotoxic activity, A-549; assay type: cell-based; details: A-549, 48 h treatment; for IC50: kills 50% of the cells
C57BI/6 mice = experiment: in vivo; details: i.p., acute toxicity
Protocol: as §1

COc1ccc(CCc2nn3c(Cc4cc(OC)c(OC)cc4S(=O)(=O)N(C)C)nnc3s2)cc1 [TS55, 3-[2-(N,N-dimethylsulfamoyl)-4,5-dimethoxybenzyl]-6-[2-(4-methoxyphenyl)ethyl]-1,2,4-triazolo[3,4-b]-1,3,4-thiazole]
LD50 (in vivo): > 500 mg/kg | IC50 [1]: > 100 µM | GI50 [1]: < 100 µM

COc1cc(Cc2nnc3sc(/C=C/c4cccc(F)c4)nn23)c(S(=O)(=O)N(C)C)cc1OC [TS29, 3-[2-(N,N-dimethylsulfamoyl)-4,5dimethoxybenzyl]-6-(E)-3-fluorostyryl-1,2,4-triazolo[3,4-b]-1,3,4-thiazole]
GI50 [2]: 10 µM | TGI [2]: 64 µM | IC50 [2]: > 100 µM | GI50 [3]: 74 µM | TGI [3]: >100 µM | IC50 [3]: > 100 µM | GI50 [4]: 45 µM | TGI [4]: 84 µM | IC50 [4]: > 100 µM | GI50 [5]: 10 µM | TGI [5]: 67 µM | IC50 [5]: > 100 µM | GI50 [6]: 66 µM | TGI [6]: >100 µM | IC50 [6]: > 100 µM | GI50 [7]: 48 µM | TGI [7]: 86 µM | IC50 [7]: > 100 µM | GI50 [8]: 85 µM | TGI [8]: >100 µM | IC50 [8]: > 100 µM | GI50 [9]: 61 µM | TGI [9]: >100 µM | IC50 [9]: > 100 µM | GI50 [10]: 30 µM | TGI [10]: 71 µM | IC50 [10]: > 100 µM

COc1cccc(Cc2nn3c(Cc4cc(OC)c(OC)cc4S(=O)(=O)N(C)C)nnc3s2)c1 [TS58, 3-[2-(N,N-dimethylsulfamoyl)-4,5-dimethoxybenzyl]-6-(3-methoxybenzyl)-1,2,4-triazolo[3,4-b]-1,3,4-thiazole]
LD50 (in vivo): > 500 mg/kg | IC50 [1]: > 100 µM | GI50 [1]: < 100 µM

COc1cc(Cc2nnc3sc(-c4cccc(N)c4)nn23)c(S(=O)(=O)N(C)C)cc1OC [TS70, 3-[2-(N,N-dimethylsulfamoyl)-4,5-dimethoxybenzyl]-6-(3-aminophenyl)-1,2,4-triazolo[3,4-b]-1,3,4-thiazole]
LD50 (in vivo): > 500 mg/kg | IC50 [1]: > 100 µM | GI50 [1]: < 100 µM

COc1cc(Cc2nnc3sc(-c4cc(OC)c(OC)c(OC)c4)nn23)c(S(=O)(=O)N(C)C)cc1OC [TS59, 3-[2-(N,N-dimethylsulfamoyl)-4,5-dimethoxybenzyl]-6-(3,4,5-trimethoxyphenyl)-1,2,4-triazolo[3,4-b]-1,3,4-thiazole]
LD50 (in vivo): > 500 mg/kg | IC50 [1]: > 100 µM | GI50 [1]: < 100 µM

COc1cc(Cc2nnc3sc(COc4ccccc4)nn23)c(S(=O)(=O)N(C)C)cc1OC [TS56, 3-[2-(N,N-dimethylsulfamoyl)-4,5-dimethoxybenzyl]-6-phenoxymethyl-1,2,4-triazolo[3,4-b]-1,3,4-thiazole]
LD50 (in vivo): > 500 mg/kg | IC50 [1]: > 100 µM | GI50 [1]: < 100 µM

COc1cc(Cc2nnc3sc(-c4ccccn4)nn23)c(S(=O)(=O)N(C)C)cc1OC [TS66]
GI50 [2]: > 100 µM | TGI [2]: >100 µM | IC50 [2]: > 100 µM | GI50 [3]: 24 µM | TGI [3]: >100 µM | IC50 [3]: > 100 µM | GI50 [4]: 20 µM | TGI [4]: >100 µM | IC50 [4]: > 100 µM | GI50 [5]: > 100 µM | TGI [5]: >100 µM | IC50 [5]: > 100 µM | GI50 [6]: > 100 µM | TGI [6]: >100 µM | IC50 [6]: > 100 µM | GI50 [7]: > 100 µM | TGI [7]: >100 µM | IC50 [7]: > 100 µM | GI50 [8]: > 100 µM | TGI [8]: >100 µM | IC50 [8]: > 100 µM | GI50 [9]: 85 µM | TGI [9]: >100 µM | IC50 [9]: > 100 µM | GI50 [10]: > 100 µM | TGI [10]: >100 µM | IC50 [10]: > 100 µM | LD10 (C57BI/6 mice): >500 mg/kg | LD50 (C57BI/6 mice): >500 mg/kg

COc1cc(Cc2nnc3sc(CCCc4ccccc4)nn23)c(S(=O)(=O)N(C)C)cc1OC [TS52, 3-[2-(N,N-dimethylsulfamoyl)-4,5-dimethoxybenzyl]-6-(3-phenylpropyl)-1,2,4-triazolo[3,4-b]-1,3,4-thiazole]
LD50 (in vivo): > 500 mg/kg | IC50 [1]: > 100 µM | GI50 [1]: < 100 µM

COc1cc(Cc2nnc3sc(-c4ccc([N+](=O)[O-])cc4Cl)nn23)c(S(=O)(=O)N(C)C)cc1OC [TS61, 3-[2-(N,N-dimethylsulfamoyl)-4,5-dimethoxybenzyl]-6-(2-chloro-4-nitrophenyl)-1,2,4-triazolo[3,4-b]-1,3,4-thiazole]
LD50 (in vivo): > 500 mg/kg | IC50 [1]: > 100 µM | GI50 [1]: < 100 µM

COc1ccccc1CCc1nn2c(Cc3cc(OC)c(OC)cc3S(=O)(=O)N(C)C)nnc2s1 [TS54, 3-[2-(N,N-dimethylsulfamoyl)-4,5-dimethoxybenzyl]-6-[2-(2-methoxyphenyl)ethyl]-1,2,4-triazolo[3,4-b]-1,3,4-thiazole]
LD50 (in vivo): > 500 mg/kg | IC50 [1]: > 100 µM | GI50 [1]: < 100 µM

COc1ccc(Cc2nn3c(Cc4cc(OC)c(OC)cc4S(=O)(=O)N(C)C)nnc3s2)cc1OC [TS51, 3-[2-(N,N-dimethylsulfamoyl)-4,5-dimethoxybenzyl]-6-(3,4-dimethoxybenzyl)-1,2,4-triazolo[3,4-b]-1,3,4-thiazole]
LD50 (in vivo): > 500 mg/kg | IC50 [1]: > 100 µM | GI50 [1]: < 100 µM

Source: patent US10513529B2, “1,2,4-triazolo-[3,4-b]-1,3,4-thiadiazole derivatives” (GALENICA S.A., priority 2016, dated 2019)
